Test results as given in patent publication US20220370636A1, “NICOTINAMIDE ADENINE DINUCLEOTIDE ACTIVATOR AND USE THEREOF” (University of South Florida, priority 2021, published 2022).

Key:
C2C12 cells = assay: MTT cytotoxicity study in C2C12 cells; assay type: cell-based, mouse
Experimental: Cytotoxicity study. The cytotoxicity of P7C3 nanoparticles (P7C3 NP), and the skeletal muscle-specific aptamer-based targeted P7C3 nanoparticles (P7C3 NP Apt) were determined using the MTT assay in C2C12 cells and was compared with the P7C3 solution, DMSO and control media. Briefly, the mouse C2C12 myoblasts were seeded at a seeding density of 10,000 cells/well in three 96-well plates (Corning, N.Y., USA) in 100 μl of growth medium, i.e., DMEM F12 supplemented with 10% FBS, and 1% P/S and were allowed to grow for 24, 48, and 72 h after an initial attachment period of 24 h, which was considered as time 0. […] The 0 nM concentration had the solvent vehicle control DMSO, in which the drugs P7C3, 7C3 NPs, and P7C3 NPs Apt were dissolved. The MTT reagent solution (1 mg/mL) was added to each well after 24, 48, and 72 h of cell proliferation and the assay was performed according to the manufacturer's protocol (Thermo Fisher Scientific CyQUANT™ MTT Cell Viability Assay kit, USA). The spectrophotometer reading was measured at 540 nm wavelength using a Synergy H1 Hybrid Multi-Mode Reader. Cell viability was calculated and plotted, considering the optical density of solvent vehicle control DMSO wells as 100% viable.

db/db hearts = assay: Ex vivo ischemia reperfusion (Langendorff) in db/db hearts; design: species or system mice
Experimental: Ex vivo ischemia reperfusion protocol. Mice were injected with heparin (360 USP units, Sigma-Aldrich, MO, USA) and euthanized with Somnasol™ (pentobarbital, 50 mg/kg i.p. body weight). Hearts were then excised and mounted on to the Langendorff apparatus immediately and perfused with Krebs-Hanseleit buffer containing (in mM): 119 NaCl, 25 NaHCO3, 4 KCl, 1 MgCl2, 1.8 CaCl2), 1 MgCl2, 10 glucose and 2 Sodium pyruvate, pH 7.4, that was constantly bubbled with carbogen gas and maintained at 37° C. as described previously. Perfusion was maintained at a constant flow of ˜2.2 ml/min. Hearts were stabilized for 30 min before proceeding to the ischemic phase. Hearts that underwent P7C3 (3 μM) treatment during the Langendorff procedure were allowed to stabilize for 10 mins then a 20 min perfusion with P7C3 (3 μM) (within Krebs-Hanseleit buffer) as pre-ischemic dosing. Cardiac ischemia was induced by the pause in Krebs-Hanseleit buffer perfusion for 45 min. Reperfusion was induced with the induction of Krebs-Hanseleit buffer at a constant flow of ˜2.2 ml/min for 2 hours. […] Image J software was utilized to quantify the ischemic areas for several sections per heart, which were then averaged and divided by the total area of the heart section and multiplied by a factor of ×100(%) to determine the overall damage percentage per heart. […]

db/db mice = assay: Ex vivo myofibre contractility and force-frequency relationship of extensor digitorum longus muscle; assay type: in vivo
Description: Ex vivo myofibre contractility and force-frequency relationship. Animals were euthanized in compliance with University of South Florida IACUC guidelines. The extensor digitorum longus (EDL) muscles of each animal were tied with surgical silk at the proximal and distal tendons and dissected free. Muscles were immediately transferred to a customized vertical organ bath system (Aurora Scientific Inc., Canada) with the suture on the distal tendon clamped in place and that on the proximal tendon tied to a force transducer such that the muscles were positioned between two platinum wirestimulating electrodes. […] Muscles were equilibrated for 10-15 min after which, the optimal muscle length (l0) for each muscle was calculated by adjusting the length until a maximal force response to a single twitch was attained. Following determination of l0, the muscles were subjected to stimulation trains (500 ms duration) of frequencies ranging from 1-125 Hz, 1 per minute to determine the force-frequency relationship (FFR). Stimulation was delivered with a 58800 dual pulse digital stimulator (Grass Products, West Warwick, R.I., USA), and all pulses were 1 ms in duration. The peak forces of each contraction at the different stimulation frequencies were used to plot the FFR. […]

[1] = In vitro drug release by membrane dialysis; conditions: PBS pH 7.4, 37° C.
Experimental: In vitro Drug Release. Membrane dialysis method was used to investigate the drug release profile of P7C3 from the NPs. A 0.5 mL sample volume of aptamer conjugated, and non-conjugated P7C3 NPs was filled in dialysis cassettes (MWCO 14 KDa) and placed in 50 mL of PBS (pH 7.4) release medium with stirring at 100 rpm and temperature of 37° C. At predetermined time intervals, 1 mL sample volume of release media was removed, and the release study was continued for 7 days.

Compound: OC(CNc1ccccc1)Cn1c2ccc(Br)cc2c2cc(Br)ccc21 (stereo not shown) [P7C3, 3,6-Dibromo-a-[(phenylamino)methyl]-9H-carbazole-9-ethanol]
- cytotoxicity (MTT cell viability) (C2C12 cells; 0, 10, 500, 1000 nM, 24, 48, 72 h): not toxic
- cell viability (C2C12 cells; 10 nM, 72 h, vs control cells): significantly higher
- cardiac effluent Troponin I levels (db/db hearts; 30 and 120 minutes post-ischemia): significant decrease
- infarct size (db/db hearts; P7C3 3 μM prior to and following (2 hour reperfusion) ischemia): 18%
- reduced EDL force at higher frequencies seen in db-Veh (db/db mice; db/db, 4 weeks): mitigated
- absolute myofibre force frequency area under curve (db/db mice; ex vivo EDL, vs db-Veh): significant increase
- cumulative drug release at day 1 (24 h) [1]: 100%
